# Where two headings read alike, the source gives them in different places.
# Legend:
# [1] = Solubility; format: physicochemical
# [2] = Toxicity tests in mice; format: in vivo; settings: 100 mg/kg i.p., after 1 month of treatment
# [3] = test system: Acholeplasma laidlawii PG-8; assay: Activity against Mycoplasma, paper disk inhibition zone; format: cell-based; settings: paper disk 8 mm in diameter, 37° C., about 48 hours
# Description: (§1) In addition, the activity of the PTL-448 derivatives against Mycoplasma was examined by conventional methods (paper disk 8 mm in diameter, 37° C., about 48 hours).
# [4] = test system: Mycoplasma gallisepticum KP-13; assay: as above; format: cell-based; settings: paper disk 8 mm in diameter, 37° C., about 48 hours
# Description: as §1
# [5] = test system: E. coli N-33; assay: Minimum inhibitory concentration (MIC), antimicrobial activity; format: cell-based; settings: Escherichia coli
# Description: (§2) The antimicrobial activity of the PTL-448 derivatives of the invention is illustrated in Table 3, which is a summary of the results of a number of tests carried out to determine minimum inhibitory concentrations (MIC) of the derivatives against a number of typical bacteria. Comparative results for Spiramycin I (SPM I) and III (SPM III) are also given. Tests were carried out using heart infusion agar media (pH 7 at 37° C., after about 20 hours).
# [6] = test system: Salmonella typhimurium KB 20; assay: as above; format: cell-based; settings: Salmonella enterica
# Description: as §2
# [7] = test system: Klebsiella pneumoniae ATCC 10031; assay: as above; format: cell-based
# Description: as §2
# [8] = test system: Staphylococcus aureus ATCC 6538P; assay: as above; format: cell-based; settings: ATCC6538P
# Description: as §2
# [9] = test system: Bacillus subtilis PCI 219; assay: as above; format: cell-based
# Description: as §2
# [10] = test system: B. cereus IFO 3001; assay: as above; format: cell-based; settings: Bacillus cereus
# Description: as §2
# [11] = test system: Streptococcus pneumoniae III KB 165; assay: as above; format: cell-based
# Description: as §2
# [12] = test system: Micrococcus luteus ATCC 9341; assay: as above; format: cell-based
# Description: as §2
# [13] = test system: S. aureus FDA 209P; assay: as above; format: cell-based; settings: Staphylococcus aureus, FDA209P
# Description: as §2
# [14] = test system: S. pyogenes KB 166; assay: as above; format: cell-based; settings: Streptococcus pyogenes, KB166, heart infusion agar, pH 7, 37° C., about 20 hours
# Description: as §2
# [15] = methanol, ethanol, acetone, ethyl acetate, chloroform, benzene
# [16] = N33, E. coli N-33, heart infusion agar, pH 7, 37° C., about 20 hours, read-out: MIC
# [17] = Salmonella typhimurium KB 20, heart infusion agar, pH 7, 37° C., about 20 hours, read-out: MIC
# [18] = ATCC10031, Klebsiella pneumoniae ATCC 10031, heart infusion agar, pH 7, 37° C., about 20 hours, read-out: MIC
# [19] = Staphylococcus aureus ATCC 6538P, heart infusion agar, pH 7, 37° C., about 20 hours, read-out: MIC
# [20] = PCI219, Bacillus subtilis PCI 219, heart infusion agar, pH 7, 37° C., about 20 hours, read-out: MIC
# [21] = IFO3001, B. cereus IFO 3001, heart infusion agar, pH 7, 37° C., about 20 hours, read-out: MIC
# [22] = IIIKB165, Streptococcus pneumoniae III KB 165, heart infusion agar, pH 7, 37° C., about 20 hours, read-out: MIC
# [23] = ATCC9341, Micrococcus luteus ATCC 9341, heart infusion agar, pH 7, 37° C., about 20 hours, read-out: MIC
# [24] = S. aureus FDA 209P, heart infusion agar, pH 7, 37° C., about 20 hours, read-out: MIC
Structure (SMILES),"Solubility ([1]; ether, n-hexane)","Solubility [1, 15]",Solubility ([1]; water),fatalities [2],Diameter of Inhibition Zone [3],Diameter of Inhibition Zone [4],"MIC [5, 16]","MIC [6, 17]","MIC [7, 18]","MIC [8, 19]","MIC [9, 20]","MIC [10, 21]","MIC [11, 22]","MIC [12, 23]","MIC [13, 24]",MIC [14],also measured
CCC1OC(=O)CC(OC(C)=O)C(C)C(OC2OC(C)C(OC3CC(C)(O)C(O)C(C)O3)C(N(C)C)C2O)C(CC=O)CC(C)C(OC2CCC(N(C)C)C(C)O2)C=CC(C)=CC1C (stereo not shown) [PTL-448-A],Slightly soluble,Soluble,Insoluble,no fatalities occurred,32.6 mm,29.2 mm,1.56 µg/mL,> 100 µg/mL,> 100 µg/mL,6.25 µg/mL,1.56 µg/mL,3.12 µg/mL,0.4 µg/mL,0.4 µg/mL,6.25 µg/mL,,
CCC1OC(=O)CC(O)C(C)C(OC2OC(C)C(OC3CC(C)(O)C(O)C(C)O3)C(N(C)C)C2O)C(CC=O)CC(C)C(OC2CCC(N(C)C)C(C)O2)C=CC(C)=CC1C (stereo not shown) [PTL-448-B],Slightly soluble,Soluble,Insoluble,no fatalities occurred,31.4 mm,30.1 mm,0.78 µg/mL,> 100 µg/mL,> 100 µg/mL,3.12 µg/mL,0.78 µg/mL,1.56 µg/mL,0.4 µg/mL,0.4 µg/mL,3.12 µg/mL,0.4 µg/mL,
CCC1OC(=O)CC(OC(C)=O)C(C)C(OC2OC(C)C(O)C(N(C)C)C2O)C(CC=O)CC(C)C(OC2CCC(N(C)C)C(C)O2)C=CC(C)=CC1C (stereo not shown) [PTL-448-C],Slightly soluble,Soluble,Insoluble,no fatalities occurred,33.1 mm,,0.4 µg/mL,50 µg/mL,50 µg/mL,1.56 µg/mL,1.56 µg/mL,1.56 µg/mL,0.2 µg/mL,0.4 µg/mL,1.56 µg/mL,0.4 µg/mL,
CCC1OC(=O)CC(O)C(C)C(OC2OC(C)C(O)C(N(C)C)C2O)C(CC=O)CC(C)C(OC2CCC(N(C)C)C(C)O2)C=CC(C)=CC1C (stereo not shown) [PTL-448-D],Slightly soluble,Soluble,Insoluble,no fatalities occurred,32.0 mm,,0.2 µg/mL,25 µg/mL,25 µg/mL,1.56 µg/mL,1.56 µg/mL,1.56 µg/mL,0.2 µg/mL,0.2 µg/mL,1.56 µg/mL,0.4 µg/mL,
"COC1C(O)CC(=O)OC(C)CC=CC=CC(OC2CCC(N(C)C)C(C)O2)C(C)CC(CC=O)C1OC1OC(C)C(OC2CC(C)(O)C(O)C(C)O2)C(N(C)C)C1O (stereo not shown) [SPM I, Spiramycin I, reference compound]",,,,,,,,,,,,,,,,,"MIC ([5]; N33, 20 h, pH 7): 1.56 µg/mL; MIC ([6]; TYPHIMURIUM, 20 h, pH 7): > 100 µg/mL; MIC ([7]; Klebsiella pneumoniae, ATCC10031, 20 h, pH 7): > 100 µg/mL; MIC ([8]; Staphylococcus aureus, 20 h, pH 7): 6.25 µg/mL; MIC ([9]; Bacillus subtilis, PCI219, 20 h, pH 7): 1.56 µg/mL; MIC ([10]; IFO3001, 20 h, pH 7): 3.12 µg/mL; MIC ([11]; Streptococcus pneumoniae, IIIKB165, 20 h, pH 7): 0.4 µg/mL; MIC ([12]; Micrococcus luteus, ATCC9341, 20 h, pH 7): 0.4 µg/mL; MIC ([13]; 20 h, pH 7): 6.25 µg/mL"
"CCC(=O)OC1CC(=O)OC(C)CC=CC=CC(OC2CCC(N(C)C)C(C)O2)C(C)CC(CC=O)C(OC2OC(C)C(OC3CC(C)(O)C(O)C(C)O3)C(N(C)C)C2O)C1OC (stereo not shown) [SPM III, Spiramycin III, reference compound]",,,,,,,1.56 µg/mL,> 100 µg/mL,> 100 µg/mL,12.5 µg/mL,1.56 µg/mL,3.12 µg/mL,0.4 µg/mL,0.4 µg/mL,12.5 µg/mL,,

# From patent US4609645A, “Macrolide antibiotics, pharmaceutical compositions and methods of use” (priority 1983, dated 1986)
